Reference: patent publication US20120129842A1, “BISTHIAZOLE INHIBITORS OF PRO-MATRIX METALLOPROTEINASE ACTIVATION” (priority 2010, published 2012)
Structures can show the parent of a compound that is named as a salt.

Legend:
[1] = molecular target: proMMP13(1-268) (SEQ ID NO:7) (Homo sapiens, UniProt P45452); assay: ThermoFluor binding assay with proMMP13(1-268); design: 6xHis (C); made in house; details: pH 7.0
Protocol: (§1) The ThermoFluor® (TF) assay is a 384-well plate-based binding assay that measures thermal stability of proteins (Biomol Screen 2001, 6, 429-40; Biochemistry 2005, 44, 5258-66). The experiments were carried out using instruments available from Johnson & Johnson Pharmaceutical Research & Development, LLC. TF dye used in all experiments was […] (1,8-ANS) (Invitrogen: A-47).
(§2) Compounds were arranged in a pre-dispensed plate (Greiner Bio-one: 781280), wherein compounds were serially diluted in 100% DMSO across 11 columns within a series. Columns 12 and 24 were used as DMSO reference and contained no compound. For multiple compound concentration-response experiments, the compound aliquots ([…]) were robotically predispensed directly into black 384-well polypropylene PCR microplates (Abgene: TF-0384/k) using a Cartesian Hummingbird liquid handler (DigiLab, Holliston, Mass.). Following compound dispense, protein and dye solutions were added to achieve the final assay volume of 3 μL. The assay solutions were overlayed with 1 μL of silicone oil (Fluka, type DC 200: 85411) to prevent evaporation.
(§3) Assay plates were robotically loaded onto a thermostatically controlled PCR-type thermal block and then heated from 40 to 90° C. at a ramp-rate of 1° C./min for all experiments. Fluorescence was measured by continuous illumination with UV light (Hamamatsu LC6) supplied via fiber optics and filtered through a band-pass filter (380-400 nm; >6 OD cutoff). Fluorescence emission of the entire 384-well plate was detected by measuring light intensity using a CCD camera (Sensys, Roper Scientific) filtered to detect 500±25 nm, resulting in simultaneous and independent readings of all 384 wells. A single image with 20-sec exposure time was collected at each temperature, and the sum of the pixel intensity in a given area of the assay plate was recorded vs temperature and fit to standard equations to yield the Tm (J Biomol Screen 2001, 6, 429-40).
(§4) Thermodynamic parameters necessary for fitting compound binding for each proMMP were estimated by differential scanning calorimetry (DSC) and from ThermoFluor® data. The heat capacity of unfolding for each protein was estimated from the molecular weight and from ThermoFluor® dosing data.
The proMMP13(1-268) (SEQ ID NO:7) protein sample preparations included a desalting buffer exchange step via a PD-10 gravity column (GE Healthcare). The desalting buffer exchange was performed prior to diluting the protein to the final assay concentration of 3.5 μM. The concentration of proMMP13(1-268) (SEQ ID NO:7) was estimated spectrophotometrically based on a calculated extinction coefficient of ε280=37000 M^−1cm^−1, a calculated molecular weight of 30.8 kDa, and calculated pI of 5.33. ThermoFluor® reference conditions were defined as follows: 100 μg/mL proMMP13(1-268) (SEQ ID NO:7), 25 μM 1,8-ANS, pH 7.0 Buffer (50 mM HEPES pH 7.0, 100 mM NaCl, 0.001% Tween-20, 2.5 mM MgCl2, 300 μM CaCl2). The thermodynamic parameters for proMMP13(1-268) (SEQ ID NO:7) are as follows: Tm (° C.)=67 (+/−0.1), ΔUH(Tm) (cal mol^−1)=107000(+/−5000), ΔUS(Tm) (cal mol^−1 K^−1)=318, ΔUCp (cal mol^−1 K^−1)=2600.

[2] = molecular target: T1, proMMP9(20-445;ΔFnII) (SEQ ID NO:6) (Homo sapiens, UniProt P14780, DEL216-390); assay: ThermoFluor binding assay with proMMP9(20-445;ΔFnII); details: pH 7.0
T1 construct: start methionine (N); made in house; host or cells: E. coli BL21(DE3) RIL
T1 sequence (P14780 with tags, fused parts or gaps DEL216-390): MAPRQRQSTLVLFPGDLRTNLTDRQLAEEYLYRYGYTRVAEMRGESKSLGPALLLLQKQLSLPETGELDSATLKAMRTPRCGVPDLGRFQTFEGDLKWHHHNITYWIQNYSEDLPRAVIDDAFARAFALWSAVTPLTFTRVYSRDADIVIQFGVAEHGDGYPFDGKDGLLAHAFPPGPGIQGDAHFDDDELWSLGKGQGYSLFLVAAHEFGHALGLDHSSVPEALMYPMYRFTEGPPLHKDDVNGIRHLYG
Protocol: as §1, §2, §3, §4
The protein sample preparations included a desalting buffer exchange step via a PD-10 gravity column (GE Healthcare). The desalting buffer exchange was performed prior to diluting the protein to the final assay concentration of 2.8 μM proMMP9(20-445;ΔFnII) (SEQ ID NO:6). The concentration of proMMP9(20-445;ΔFnII) (SEQ ID NO:6) was determined spectrophotometrically based on a calculated extinction coefficient of ε280=39880 M^−cm^−1, a calculated molecular weight of 28.2 kDa, and calculated pI of 5.5. ThermoFluor® reference conditions were define as follows: 80 μg/mL (2.8 μM) proMMP9(20-445;ΔFnII) (SEQ ID NO:6), 50 μM 1,8-ANS, pH 7.0 Buffer (50 mM HEPES pH 7.0, 100 mM NaCl, 0.001% Tween-20, 2.5 mM MgCl2, 300 μM CaCl2). The thermodynamic parameters for proMMP9(20-445;ΔFnII) (SEQ ID NO:6) are as follows: Tm (° C.)=72 (+/−0.1), ΔUH(Tm) (cal mol^−1)=160000(+/−5000), ΔUS(Tm) (cal mol^−1 K^−1)=434, ΔUCp (cal mol^−1 K^−)=2400.

[3] = molecular target: T2, proMMP9(67-444;ΔFnII) (SEQ ID NO:5) (Homo sapiens, UniProt P14780, DEL216-390); assay: ThermoFluor binding assay with proMMP9(67-444;ΔFnII); details: pH 7.0
T2 construct: start methionine (N); made in house; host or cells: E. coli BL21(DE3) RIL
T2 sequence (P14780 with tags, fused parts or gaps DEL216-390): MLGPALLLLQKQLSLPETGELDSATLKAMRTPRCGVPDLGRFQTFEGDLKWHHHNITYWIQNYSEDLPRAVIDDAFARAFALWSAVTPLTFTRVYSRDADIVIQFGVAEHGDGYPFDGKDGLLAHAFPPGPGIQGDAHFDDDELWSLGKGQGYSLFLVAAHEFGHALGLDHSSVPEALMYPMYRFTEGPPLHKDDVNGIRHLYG
Protocol: as §1, §2, §3, §4
The protein sample preparations had to include a desalting buffer exchange step via a PD-10 gravity column (GE Healthcare). The desalting buffer exchange was performed prior to diluting the protein to the final assay concentration of 3.5 μM proMMP9(67-444;ΔFnII) (SEQ ID NO:5). The concentration of proMMP9(67-444;ΔFnII) (SEQ ID NO:5) was determined spectrophotometrically based on a calculated extinction coefficient of ε280=33900 M^−1cm^−1, a calculated molecular weight of 22.6 kDa, and calculated pI of 5.20. ThermoFluor® reference conditions were defined as follows: 80 μg/mL (3.5 μM) proMMP9(67-444;ΔFnII) (SEQ ID NO:5), 50 μM 1,8-ANS, pH 7.0 Buffer (50 mM HEPES pH 7.0, 100 mM NaCl, 0.001% Tween-20, 2.5 mM MgCl2, 300 μM CaCl2). The thermodynamic parameters for proMMP9(67-444;ΔFnII) (SEQ ID NO:5) are as follows: Tm (° C.)=63 (+/−0.1), ΔUH(Tm) (cal mol^−1)=105000(+/−5000), ΔUS(Tm) (cal mol^−1 K^−1)=[…], ΔUCp (cal mol^−1 K^−1)=2000.

[4] = molecular target: T3, full-length proMMP9(1-707) (SEQ ID NO:1) (Homo sapiens, UniProt P14780, R574P); assay: proMMP9/MMP3 P126 Activation Assay; format: biochemical; details: 20 nM proMMP9, 20 nM MMP3, 80 min 37° C.
T3 construct: made in house; host or cells: HEK293 (proMMP9, secreted); E. coli (MMP3)
T3 sequence (P14780 20-707 R574P): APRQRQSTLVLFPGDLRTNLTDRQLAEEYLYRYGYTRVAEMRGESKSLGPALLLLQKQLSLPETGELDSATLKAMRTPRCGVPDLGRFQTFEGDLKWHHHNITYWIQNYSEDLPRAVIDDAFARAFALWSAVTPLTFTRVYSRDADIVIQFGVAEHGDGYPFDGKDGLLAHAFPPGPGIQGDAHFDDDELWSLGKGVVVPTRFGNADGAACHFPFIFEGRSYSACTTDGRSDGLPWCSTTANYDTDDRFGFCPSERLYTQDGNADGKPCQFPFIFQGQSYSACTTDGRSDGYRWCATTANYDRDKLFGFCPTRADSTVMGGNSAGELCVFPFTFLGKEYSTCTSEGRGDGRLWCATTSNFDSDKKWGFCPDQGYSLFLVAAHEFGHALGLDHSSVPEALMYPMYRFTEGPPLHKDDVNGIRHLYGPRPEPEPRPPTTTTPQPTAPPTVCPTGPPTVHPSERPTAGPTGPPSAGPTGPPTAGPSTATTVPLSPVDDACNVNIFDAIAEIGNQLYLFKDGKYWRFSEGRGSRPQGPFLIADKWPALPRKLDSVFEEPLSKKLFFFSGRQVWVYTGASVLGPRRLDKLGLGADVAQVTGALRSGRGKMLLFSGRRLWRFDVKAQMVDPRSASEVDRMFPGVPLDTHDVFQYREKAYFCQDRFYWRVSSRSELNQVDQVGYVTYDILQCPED
Protocol: The reaction volume was 50 μL. […] Reactivity of residual MMP3 towards P-126 substrate was minimal under these conditions.

Compound | Kd [1] [µM] | Kd [2] [nM] | Kd [3] [nM] | IC50 [4] [nM]
CCOC(=O)c1ccc(OCC)c(Nc2nc(-c3sc(C)nc3C)cs2)c1 [Example 82, 3-(2′,4′-Dimethyl-[4,5′]bithiazolyl-2-ylamino)-4-ethoxy-benzoic acid ethyl ester.HBr] | 13 | 15000 | 3500 | –
Cc1nc(C)c(-c2nc(Nc3cc(C(N)=O)ccc3OC(C)C)sc2C)s1 [Example 153, 4-Isopropoxy-3-((2′,4′,5-trimethyl-[4,5′-bithiazol]-2-yl)amino)benzamide] | – | 1600 | 4500 | 1400
Cc1nc(N2CCCC2)sc1-c1csc(Nc2cc(C(N)=O)ccc2OC(C)C)n1 [Example 91, 4-Isopropoxy-3-(4′-methyl-2′-pyrrolidin-1-yl-[4,5′]bithiazolyl-2-ylamino)-benzamide.TFA] | – | 140 | 520 | 300
Cc1nc(C)c(-c2nc(Nc3cc(S(N)(=O)=O)ccc3OC(C)C)sc2C)s1 [Example 152, 4-Isopropoxy-3-((2′,4′,5-trimethyl-[4,5′-bithiazol]-2-yl)amino)benzenesulfonamide] | – | 5700 | 6400 | 4700
COc1ccc(-c2ccc(C(C)=O)s2)cc1Nc1nc(-c2sc(C)nc2C)cs1 [Example 134, 1-{5-[3-(2′,4′-Dimethyl-[4,5′]bithiazolyl-2-ylamino)-4-methoxy-phenyl]-thiophen-2-yl}-ethanone] | – | 18000 | > 95000 | > 20000
COc1ccc(-c2cc[nH]n2)cc1Nc1nc(-c2sc(C)nc2C)cs1 [Example 137, (2′,4′-Dimethyl-[4,5′]bithiazolyl-2-yl)-[2-methoxy-5-(1H-pyrazol-3-yl)-phenyl]-amine] | – | 11000 | 2200 | 4700
COc1ccc(C(N)=O)cc1Nc1nc(-c2cnc(N)s2)cs1 [Example 27, 3-(2′-Amino-[4,5′]bithiazolyl-2-ylamino)-4-methoxy-benzamide.HBr] | – | 1000 | 2800 | 5200
CCSc1ccc(S(N)(=O)=O)cc1Nc1nc(-c2sc(C)nc2C)cs1 [Example 154, 3-((2′,4′-Dimethyl-[4,5′-bithiazol]-2-yl)amino)-4-(ethylthio)benzenesulfonamide] | – | 2200 | 2000 | 2600
COc1ccc(S(N)(=O)=O)cc1Nc1nc(-c2sc(NC(C)=O)nc2C)cs1 [Example 53, N-[2-(2-Methoxy-5-sulfamoyl-phenylamino)-4′-methyl-[4,5′]bithiazolyl-2′-yl]-acetamide.HBr] | – | 1500 | 1200 | 1900
COc1ccc(NC(C)=O)cc1Nc1nc(-c2sc(N)nc2C)cs1 [Example 84, N-[3-(2′-Amino-4′-methyl-[4,5′]bithiazolyl-2-ylamino)-4-methoxy-phenyl]-acetamide.TFA] | – | 19000 | 9700 | 9800
Cc1nc(N)sc1-c1csc(Nc2cc(C(=O)O)ccc2OC(C)C)n1 [Example 77, 3-(2′-Amino-4′-methyl-[4,5′]bithiazolyl-2-ylamino)-4-isopropoxy-benzoic acid.TFA] | – | 350 | 450 | 410
COc1cc(C)c(C(N)=O)cc1Nc1nc(-c2sc(N3CCN(C)CC3)nc2C)cs1 [Example 37, 4-Methoxy-2-methyl-5-[4′-methyl-2′-(4-methyl-piperazin-1-yl)-[4,5]bithiazolyl-2-ylamino]-benzamide.HCl] | – | 570 | 7200 | 3600
Cc1nc(-c2ncc(C(F)(F)F)cc2N2CCCC2)sc1-c1csc(Nc2cc(C(N)=O)ccc2OC(C)C)n1 [Example 97, 4-Isopropoxy-3-[4′-methyl-2′-(3-pyrrolidin-1-yl-5-trifluoromethyl-pyridin-2-yl)-[4,5′]bithiazolyl-2-ylamino]-benzamide.TFA] | – | 1900 | > 95000 | > 20000
Cc1nc(-c2cnccn2)sc1-c1csc(Nc2cc(C(N)=O)ccc2OC(C)C)n1 [Example 145] | – | 130 | 650 | 780
Cc1nc(C)c(-c2csc(Nc3cc(C(N)=O)ccc3OCC(F)(F)F)n2)s1 [Example 16, 3-(2′,4′-Dimethyl-[4,5′]bithiazolyl-2-ylamino)-4-(2,2,2-trifluoro-ethoxy)-benzamide] | – | 240 | 2100 | 1300
COc1ccncc1Nc1nc(-c2sc(N3CCN(C)CC3)nc2C)cs1 [Example 155, N-(4-Methoxypyridin-3-yl)-4′-methyl-2′-(4-methylpiperazin-1-yl)-[4,5′-bithiazol]-2-amine.TFA] | – | 1900 | 340 | 290
